Paper PMC5893132, “Selective inhibition of histamine-evoked Ca^2+ signals by compartmentalized cAMP in human bronchial airway smooth muscle cells” (Cell Calcium, 2018)
Where a name gives a salt, the structure may show the parent alone.

Tests used:
Format in all cases: cell-based, human
[1] = system: bradykinin-evoked Ca^2+ signals in hBASMCs; assay: Bradykinin-evoked Ca2+ signals in populations of fluo-4-loaded hBASMCs; conditions: cells treated with PTX 100 ng·mL^−1, 24 h; HBS
Procedure: (§1) Two methods were used to measure [Ca^2+]i in populations of hBASMCs. For measurements using a FlexStation III plate-reader (Molecular Devices, Sunnyvale, CA, USA), hBASMCs were seeded into 96-well plates (10^4 cells per well). After about 4 days, when the cells were confluent, the medium was replaced with SMGM-2 without serum or growth factor supplements, and the cells were used after a further 24 h. […] Cells were washed with HEPES-buffered saline (HBS: 135 mM NaCl, 5.9 mM KCl, 1.2 mM MgCl2, 1.5 mM CaCl2, 11.6 mM HEPES, 11.5 mM D-glucose, pH 7.3), and loaded with fluo-4 by incubation with fluo-4-AM (2 μM) in HBS (100 μL per well) containing pluronic F127 (0.02%, v/v) and probenecid (2.5 mM). After 1 h at 20 °C, the medium was replaced with HBS (100 μL per well) containing probenecid (2.5 mM). After a further incubation at 20 °C for 1 h, the medium was replaced with HBS (60–80 μL per well) or nominally Ca^2+-free HBS, and the cells were used immediately for experiments at 20 °C. […] Drug additions (20 μL at 4 or 5 times the final concentration) were added automatically. Fluorescence from fluo-4 (excitation 485 nm, emission 525 nm) was recorded at 1.44-s intervals using Softmax Pro 5.4 (Molecular Devices). Fluorescence was calibrated to [Ca^2+]i from: [Ca^2+]i=KDCa×(F−Fmin/Fmax−F) where, KDCa is the equilibrium dissociation constant of fluo-4 for Ca^2+ (345 nM), F is the recorded fluorescence, and Fmin and Fmax are the fluorescence values recorded after addition of triton-X-100 (0.1%, v/v) with either BAPTA (10 mM, Fmin) or CaCl2 (10 mM, Fmax). […] Fmax was determined for each well at the end of an experiment, and the average value was used for each column of 8 wells. Fmin was determined from parallel wells on each plate.
(§2) For measurements of [Ca^2+]i using an FDSS 7000 FLIPR (Hamamatsu), hBASMCs were seeded into 384-well plates (8000 cells per well) in 20 μL of SMGM-2 containing 5% serum. […] The exact composition of this ‘no-wash’ indicator kit is not disclosed by the manufacturer, but it contains fluo-4-AM and components that reduce background fluorescence. […]

[2] = system: carbachol-evoked Ca^2+ signals in hBASMCs; assay: Carbachol-evoked Ca2+ signals in populations of fluo-4-loaded hBASMCs; conditions: cells treated with PTX 100 ng·mL^−1, 24 h; HBS
Procedure: as §1, §2

[3] = system: intracellular cAMP in hBASMCs; assay: Intracellular cAMP in hBASMCs by mass spectrometry
Procedure: These methods were modified from. Confluent cultures of hBASMCs in 48-well plates were serum-deprived (6–24 h) and the medium was then replaced with HBSS (300 μL) containing HEPES (5 mM) and BSA (0.1%, w/v). Cells were stimulated at 20 °C, and reactions were terminated by aspiration of the medium and addition of acetonitrile (170 μL) containing dibutyryl cAMP (0.5 μM, to provide an internal standard). The plates were centrifuged (1500 xg, 15 min, 4 °C), supernatants (158 μL) were transferred to a 96-well, glass-coated plate (Thermo Scientific), and aqueous NH4HCO3 (pH 9.4, 93 μL) was added to each sample. After mixing and centrifugation (1500 xg, 15 min, 4 °C), samples were stored at 4 °C before analysis. Samples were analyzed by liquid chromatography tandem mass spectrometry (LC–MS/MS) using a Waters Acquity UPLC and a Sciex 5500 mass spectrometer equipped with an electrospray ionization source. ATP, ADP, AMP and cAMP were analyzed using a ZIC-pHILIC polymeric column (5-μm particle size, […]) maintained at 35 °C. Calibration standards were prepared in the lysis medium containing the internal standard, dibutyryl cAMP (0.5 μM). […] Samples were detected using multiple reaction monitoring in negative ion mode using the following parent-to-daughter mass transitions: cAMP m/z 327.9 → 133.9 (DP −100 V, CE −33 eV), AMP m/z 345.9 → 134.0 (DP −100 V, CE −50 eV), ADP m/z 426.0 → 134.0 (DP −100 V, CE −30 eV), ATP m/z 505.9 → 408.0 (DP −100 V, CE −35 eV), and internal standard dibutyryl cAMP m/z 468.1 → 175.0 (DP −100 V, CE −35 eV). Concentration-effect relationships were fitted to logistic equations for each experiment using GraphPad Prism (version 5, GraphPad Software, La Jolla, CA, USA), from which half-maximally effective drug concentrations (EC50), maximal responses, and Hill slopes were determined. For statistical analyses, maximal responses, Hill slopes and pEC50 (-logEC50) or pIC50 (-log of the half-maximal inhibitory concentration, IC50) values determined for individual experiments were pooled for statistical analysis. […]

Question: Which results are given for `CC(C)NC[C@H](O)c1ccc(O)c(O)c1` [isoproterenol, (−)-isoproterenol hydrochloride]?
Answer: effect on the Ca2+ signals evoked by bradykinin after pertussis toxin [1]: remained insensitive to isoproterenol; effect on the Ca2+ signals evoked by carbachol after pertussis toxin [2]: remained insensitive to isoproterenol; EC50 ([3]; Homo sapiens, 5 min, MS analyses, n = 3, read-out: pEC50 for cAMP accumulation (converted)): 0.132 µM; intracellular cAMP associated with matched inhibition of Ca2+ signals, relative to IBMX ([3]; isoproterenol (5 min) vs IBMX (20 min), histamine 10 μM, cAMP by MS): ~5.4 fold
